In experiment [1] the test system is Epidermal growth factor receptor (Homo sapiens), P00533 [L858R,T790M,C797S]. Put plainly: Inhibition of EGFR L858R/T790M/C797S mutant (unknown origin) at 0.5 uM relative to control.
The test system is the same in experiment [2]. Put plainly: Inhibition of EGFR L858R/T790M/C797S mutant (unknown origin) at 1 uM relative to control.

The record followed here is ChEMBL document CHEMBL5120829, “Discovery and structural optimization of potent epidermal growth factor receptor (EGFR) inhibitors against L858R/T790M/C797S resistance mutation for lung cancer treatment” (Eur J Med Chem, 2022).

Chain of Epidermal growth factor receptor (Homo sapiens), P00533 [L858R,T790M,C797S] (P00533 whole entry T790M/C797S/L858R): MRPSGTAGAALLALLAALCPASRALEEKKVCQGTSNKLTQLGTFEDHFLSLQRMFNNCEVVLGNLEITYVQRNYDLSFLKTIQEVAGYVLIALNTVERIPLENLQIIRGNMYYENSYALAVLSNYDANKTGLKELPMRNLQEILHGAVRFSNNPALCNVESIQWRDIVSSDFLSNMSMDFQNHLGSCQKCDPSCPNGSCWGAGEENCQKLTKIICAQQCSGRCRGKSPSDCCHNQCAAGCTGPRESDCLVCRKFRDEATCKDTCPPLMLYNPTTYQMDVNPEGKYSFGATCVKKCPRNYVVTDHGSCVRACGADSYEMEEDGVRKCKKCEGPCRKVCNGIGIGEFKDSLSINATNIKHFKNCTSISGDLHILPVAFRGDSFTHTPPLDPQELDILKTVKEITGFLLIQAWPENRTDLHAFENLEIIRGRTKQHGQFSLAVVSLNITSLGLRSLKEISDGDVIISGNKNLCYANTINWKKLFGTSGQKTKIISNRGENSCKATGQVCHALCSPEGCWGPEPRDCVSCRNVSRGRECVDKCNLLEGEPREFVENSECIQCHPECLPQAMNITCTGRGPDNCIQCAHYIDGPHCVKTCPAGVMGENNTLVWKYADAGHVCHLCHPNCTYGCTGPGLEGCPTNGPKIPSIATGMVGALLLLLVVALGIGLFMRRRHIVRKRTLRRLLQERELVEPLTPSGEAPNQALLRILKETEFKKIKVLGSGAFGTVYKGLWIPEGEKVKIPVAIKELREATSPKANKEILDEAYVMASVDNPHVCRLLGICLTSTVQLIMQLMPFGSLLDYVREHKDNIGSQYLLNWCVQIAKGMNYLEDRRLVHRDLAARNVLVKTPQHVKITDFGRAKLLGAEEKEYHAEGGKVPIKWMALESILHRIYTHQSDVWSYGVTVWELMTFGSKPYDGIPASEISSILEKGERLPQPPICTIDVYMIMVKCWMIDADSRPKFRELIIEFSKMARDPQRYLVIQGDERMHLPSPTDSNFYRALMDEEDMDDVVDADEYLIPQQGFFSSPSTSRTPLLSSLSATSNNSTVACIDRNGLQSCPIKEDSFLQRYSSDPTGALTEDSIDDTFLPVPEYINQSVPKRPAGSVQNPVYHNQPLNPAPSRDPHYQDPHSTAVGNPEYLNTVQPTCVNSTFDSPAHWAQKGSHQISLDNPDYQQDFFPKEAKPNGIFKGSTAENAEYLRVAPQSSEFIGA

One may read the inhibition as the relative decrease from the control value, in per cent. As for `C=CC(=O)Nc1cc(Nc2ncc3cc(C(=O)Nc4ccc(OC)cc4)[nH]c3n2)c(OC)cc1N(C)CCN(C)C`, the figures for the inhibition in experiment [1] and in experiment [2] were 2.8% and 9.5%, respectively.
The matching figures for `C=CC(=O)Nc1cc(Nc2ncc3cc(C(=O)Nc4ccc(F)c(Cl)c4)n(C4CCCC4)c3n2)c(OC)cc1N(C)CCN(C)C`: 8.1% and 10%.
In the same order, the values of `C=CC(=O)Nc1cc(Nc2ncc3cc(C(=O)Nc4cccc(OC)c4)n(C4CCCC4)c3n2)c(OC)cc1N1CCOCC1` are 1.4% and 3.2%.
For `C=CC(=O)Nc1cc(Nc2ncc3cc(C(=O)NC4CCCCC4)n(C4CCCC4)c3n2)c(OC)cc1N(C)CCN(C)C`, the inhibition came out at 4.8% in experiment [1] and 6.5% in experiment [2].
In the same order, the values of `C=CC(=O)Nc1cc(Nc2ncc3cc(C(=O)Nc4ccccc4OC)n(C4CCCC4)c3n2)c(OC)cc1N(C)CCN(C)C` are 7.5% and 18%.
The matching figures for `C=CC(=O)Nc1cc(Nc2ncc3cc(C(=O)Nc4cccc(OC)c4)n(C4CCCC4)c3n2)c(OC)cc1N1CCN(CCOC)CC1`: -2.3% and -0.3%.
The matching figures for `C=CC(=O)Nc1cc(Nc2ncc3cc(C(=O)Nc4cccc(C(F)(F)F)c4)n(C4CCCC4)c3n2)c(OC)cc1N(C)CCN(C)C`: 4.7% and 10%.
As to `C=CC(=O)Nc1cc(Nc2ncc3cc(C(=O)Nc4cccc(OC)c4)n(-c4ccccc4)c3n2)c(OC)cc1N(C)CCN(C)C`, the figures for the inhibition in experiment [1] and in experiment [2] were 4.1% and 6%, respectively.
The matching figures for `C=CC(=O)Nc1cc(Nc2ncc3cc(C(=O)Nc4ccccc4)n(C4CCCC4)c3n2)ccc1N1CCN(C)CC1`: 21% and 37%.
The matching figures for `C=CC(=O)Nc1cc(Nc2ncc3cc(C(=O)Nc4ccccc4)n(C4CCCC4)c3n2)c(OC)cc1N1CCC(N2CCN(C)CC2)CC1`: 16% and 20%.
In the same order, the values of `C=CC(=O)Nc1cc(Nc2ncc3cc(C(=O)Nc4cccc(OC)c4)n(C)c3n2)c(OC)cc1N(C)CCN(C)C` are -5% and -1.3%.
Take `C=CC(=O)Nc1cc(Nc2ncc3cc(C(=O)Nc4cccc(C#N)c4)n(C4CCCC4)c3n2)c(OC)cc1N(C)CCN(C)C`: the inhibition in experiment [1] amounted to 3.7%; in experiment [2] it was 3%.
In the same order, the values of `C=CC(=O)Nc1cc(Nc2ncc3cc(C(=O)Nc4cccc(OC)c4)n(C4CCCC4)c3n2)c(OC)cc1N1CCC(N(C)C)CC1` are 15% and 16%.
The matching figures for `C=CC(=O)Nc1cc(Nc2ncc3cc(C(=O)Nc4cccc(OC)c4)n(C4CCCC4)c3n2)c(OC)cc1N(C)CCN(C)C`: 11% and 17%.
The matching figures for `C=CC(=O)Nc1cc(Nc2ncc3cc(C(=O)Nc4cccc(OC(F)(F)F)c4)n(C4CCCC4)c3n2)c(OC)cc1N(C)CCN(C)C`: -1.9% and 0.6%.
Take `C=CC(=O)Nc1cc(Nc2ncc3cc(C(=O)Nc4cccc(C)c4)n(C4CCCC4)c3n2)c(OC)cc1N(C)CCN(C)C`: the inhibition was 6.7% in experiment [1] and 14% in experiment [2].
In the same order, the values of `C=CC(=O)Nc1cc(Nc2ncc3cc(CNc4cc(C)cc(C)c4)n(C4CCCC4)c3n2)c(OC)cc1N(C)CCN(C)C` are -1.4% and -8.4%.
The matching figures for `C=CC(=O)Nc1cc(Nc2ncc3cc(C(=O)Nc4cccc(N(C)C)c4)n(C4CCCC4)c3n2)c(OC)cc1N(C)CCN(C)C`: 12% and 16%.
The matching figures for `C=CC(=O)Nc1cc(Nc2ncc3cc(C(=O)Nc4cccc(OC)c4)n(C4CCCCC4)c3n2)c(OC)cc1N(C)CCN(C)C`: 1.1% and 4.9%.
Regarding `C=CC(=O)Nc1cc(Nc2ncc3cc(C(=O)Nc4ccnc(OC)c4)n(C4CCCC4)c3n2)c(OC)cc1N(C)CCN(C)C`, the figures for the inhibition in experiment [1] and in experiment [2] were -2.6% and 4.1%, respectively.
In the case of `C=CC(=O)Nc1cc(Nc2ncc3cc(C(=O)NC4CCCc5ccccc54)n(C4CCCC4)c3n2)c(OC)cc1N(C)CCN(C)C` (stereo not drawn), the inhibition in experiment [1] is 13%; in experiment [2], 23%.
Regarding `C=CC(=O)Nc1cc(Nc2ncc3cc(C(=O)Nc4cccc(O)c4)n(C4CCCC4)c3n2)c(OC)cc1N(C)CCN(C)C`, the inhibition in experiment [1] is 5.2%; in experiment [2], 22%.
As to `C=CC(=O)Nc1cc(Nc2ncc3cc(C(=O)Nc4cccc(OC)c4)n(C4CC4)c3n2)c(OC)cc1N(C)CCN(C)C`, the inhibition was 7% in experiment [1] and 7.8% in experiment [2].
The matching figures for `C=CC(=O)Nc1cc(Nc2ncc3cc(C(=O)Nc4ccccc4)n(C4CCCC4)c3n2)c(OC)cc1N1CCN(C(C)C)CC1`: 18% and 21%.
The matching figures for `C=CC(=O)Nc1cc(Nc2ncc3cc(CNc4cccc(C)c4)n(C4CCCC4)c3n2)c(OC)cc1N(C)CCN(C)C`: 48% and 61%.
In the same order, the values of `C=CC(=O)Nc1cc(Nc2ncc3cc(C(=O)Nc4ccc(OC)c(OC)c4)n(C4CCCC4)c3n2)c(OC)cc1N(C)CCN(C)C` are 7.3% and 8.7%.
As to `C=CC(=O)Nc1cc(Nc2ncc3cc(C(=O)Nc4ccccc4)n(C4CCCC4)c3n2)c(OC)cc1N1CCN(C)CC1`, the inhibition in experiment [1] and in experiment [2] was 23% in each case.
Consider `C=CC(=O)Nc1cc(Nc2ncc3cc(C(=O)Nc4ccccc4)n(C4CCCC4)c3n2)c(OC)cc1N(C)CCN(C)C`, for which the inhibition in experiment [1] is 18%; in experiment [2], 26%.
The matching figures for `C=CC(=O)Nc1cc(Nc2ncc3cc(CNc4c(C)cccc4C)n(C4CCCC4)c3n2)c(OC)cc1N(C)CCN(C)C`: 23% and 40%.
Turning to `C=CC(=O)Nc1cc(Nc2ncc3cc(C(=O)Nc4ccnc(C)c4)n(C4CCCC4)c3n2)c(OC)cc1N(C)CCN(C)C`, the inhibition in experiment [1] was -10%; in experiment [2], 8.3%.
In the same order, the values of `C=CC(=O)Nc1cc(Nc2ncc3cc(C(=O)Nc4cc(OC)c(OC)c(OC)c4)n(C4CCCC4)c3n2)c(OC)cc1N(C)CCN(C)C` are 3.1% and 5.3%.
In the same order, the values of `C=CC(=O)Nc1cc(Nc2ncc3cc(C(=O)Nc4ccc5c(c4)OCO5)n(C4CCCC4)c3n2)c(OC)cc1N(C)CCN(C)C` are 0.5% and 13%.
The matching figures for `C=CC(=O)Nc1cc(Nc2ncc3cc(C(=O)Nc4cccc(OC)c4)n(C(C)C)c3n2)c(OC)cc1N(C)CCN(C)C`: 9.3% and 12%.
Consider `C=CC(=O)Nc1cc(Nc2ncc3cc(CNc4cccc(OC)c4)n(C4CCCC4)c3n2)c(OC)cc1N(C)CCN(C)C`, for which the inhibition is 41% in experiment [1] and 56% in experiment [2].
